Publication PMC4393269, “Carvacrol Codrugs: A New Approach in the Antimicrobial Plan” (PLoS ONE, 2015)
≈ marks a conversion by molar mass, not a printed value.

What was measured:
Format in all cases: cell-based
E. coli ATCC 8739 = experiment: Broth microdilution MIC/MBC on planktonic cells; conditions: Escherichia coli, ATCC8739; for MIC: E. coli ATCC 8739, 24 h at 37°C, read-out: MIC; for MBC: E. coli ATCC 8739, read-out: MBC
Experimental: (§1) Two Gram-positive (S. aureus ATCC 29213 and S. epidermidis ATCC 35984) and two Gram-negative (E. coli ATCC 8739 and P. aeruginosa ATCC 9027) strains, and one fungal strain (C. albicans ATCC 10231) were used for the detection of antibacterial activity of carvacrol, NAC, Ac-Cys(Allyl)-OH, and carvacrol codrugs 1–10. All tested compounds were dissolved in 20% DMSO to prepare the stock solution (100 mg/mL). The final concentration of DMSO in each well appeared to be not toxic for all studied microorganisms, as confirmed by the solvent control test included in the study.
(§2) The effects of carvacrol codrugs 1–10 and reference compounds on planktonic cells were evaluated by Minimum Inhibitory Concentration (MIC) and Minimum Bactericidal Concentration (MBC) determination using the broth microdilution method according to EUCAST guidelines. Bacterial suspensions, grown in Mueller–Hinton Broth (MHB) at logarithmic phase, were incubated on microtiter plates at a concentration of 5 x 10^5 CFU/mL, with several dilutions (0.07–40 mg/mL) for 24 h at 37°C. The MIC was defined as the lowest concentration of substances giving a complete inhibition of visible growth in comparison with a control well, and the MBC was determined as the lowest concentration at which no bacterial growth occurred on Mueller–Hinton Agar plates.
(§3) Data were obtained from at least three independent experiments performed in duplicate. The susceptibility of the bacterial strains against ciprofloxacin was used as an internal standard during MIC determinations.

P. aeruginosa ATCC 9027 = experiment: Broth microdilution MIC/MBC on planktonic cells; conditions: Pseudomonas aeruginosa, ATCC9027; for MIC: P. aeruginosa ATCC 9027, 24 h at 37°C, read-out: MIC; for MBC: P. aeruginosa ATCC 9027, read-out: MBC
Experimental: as §1, §2, §3

S. aureus ATCC 29213 = experiment: Broth microdilution MIC/MBC on planktonic cells; conditions: Staphylococcus aureus, ATCC29213; for MIC: S. aureus ATCC 29213, 24 h at 37°C, read-out: MIC; for MBC: S. aureus ATCC 29213, read-out: MBC
Experimental: as §1, §2, §3

[1] = system: S. epidermidis ATCC 35984; experiment: Broth microdilution MIC/MBC on planktonic cells; conditions: Staphylococcus epidermidis, ATCC35984; for MIC: S. epidermidis ATCC 35984, 24 h at 37°C, read-out: MIC; for MBC: S. epidermidis ATCC 35984, read-out: MBC
Experimental: as §1, §2, §3

C. albicans ATCC 10231 = experiment: Broth microdilution MIC/MFC; conditions: Candida albicans, ATCC10231; for MIC: C. albicans ATCC 10231, 24–48 h at 37°C, read-out: MIC; for MFC: C. albicans ATCC 10231, read-out: MFC
Experimental: as §1
The MIC detection of C. albicans ATCC 10231 was performed using the broth microdilution method according to EUCAST guidelines in RPMI 1640 plus 2% glucose with a final inoculum of 1–5 x 10^5 CFU/mL for 24–48 h at 37°C. The Minimum Fungicidal Concentration (MFC) was determined as the lowest concentration of substances at which no fungal growth occurred on Sabouraud agar plates.
as §3

[2] = system: human red blood cells (h-RBC); experiment: Hemolytic activity; conditions: 4% h-RBC, 1 h at 37°C; for hemolytic activity, maximum at the tested concentrations: 25 to 0.05 mg/mL
Experimental: Experimental protocols to study hemolysis on human red cells were approved by Ethics Committee of the University “G. d’Annunzio” Chieti-Pescara. Human red cells were from two volunteers, who signed the informed consent for this study.
Hemolytic activity of carvacrol codrugs 1–10 was tested against human red blood cells (h-RBC). Fresh human blood, collected with EDTA, was centrifuged at 3000 rpm for 5 min then washed three times with PBS pH 7.3. Red blood cells were diluted to 4% in PBS and incubated with different codrugs concentrations ranging from 25 to 0.05 mg/mL. After 1 h of incubation at 37°C, the suspensions were sedimented by centrifugation and the release of hemoglobin was determined by absorbance measurement at 405 nm and compared with a 0% hemolysis control (PBS) and a 100% hemolysis control (PBS with 1% v/v Triton X-100). The percentage of hemolysis was calculated using the following equation: Hemolysis (%) = [(OD405sample - OD4050% lysis control)/(OD405100% lysis control - OD4050% lysis contro)] X 100

MIC (E. coli ATCC 8739) | MIC (P. aeruginosa ATCC 9027) | MIC (S. aureus ATCC 29213) | MIC [1] | MIC (C. albicans ATCC 10231) | Structure (SMILES) | MBC (E. coli ATCC 8739) | MBC (P. aeruginosa ATCC 9027) | MBC (S. aureus ATCC 29213) | MBC [1] | MFC (C. albicans ATCC 10231) | hemolytic activity, maximum at the tested concentrations [2] | concentration at which hemolytic activity is over 50% [2]
10000 µg/mL (≈ 33.9 mM) | 10000 µg/mL (≈ 33.9 mM) | 10000 µg/mL (≈ 33.9 mM) | 5000 µg/mL (≈ 16.9 mM) | 300 µg/mL (≈ 1.02 mM) | CC(=O)N[C@@H](CS)C(=O)Oc1cc(C(C)C)ccc1C [codrug 1, NAC-CAR] | 10000 µg/mL (≈ 33.9 mM) | 10000 µg/mL (≈ 33.9 mM) | 10000 µg/mL (≈ 33.9 mM) | 20000 µg/mL (≈ 67.7 mM) | 300 µg/mL (≈ 1.02 mM) | ≤ 40% | –
10000 µg/mL (≈ 32.3 mM) | 10000 µg/mL (≈ 32.3 mM) | 10000 µg/mL (≈ 32.3 mM) | 2500 µg/mL (≈ 8.08 mM) | 5000 µg/mL (≈ 16.2 mM) | CSC[C@H](NC(C)=O)C(=O)Oc1cc(C(C)C)ccc1C [codrug 2, N-Ac-Cys(Methyl)-CAR] | 10000 µg/mL (≈ 32.3 mM) | 10000 µg/mL (≈ 32.3 mM) | 10000 µg/mL (≈ 32.3 mM) | 10000 µg/mL (≈ 32.3 mM) | 5000 µg/mL (≈ 16.2 mM) | – | over 20 mg/mL
10000 µg/mL (≈ 30.9 mM) | 10000 µg/mL (≈ 30.9 mM) | 10000 µg/mL (≈ 30.9 mM) | 10000 µg/mL (≈ 30.9 mM) | 2500 µg/mL (≈ 7.73 mM) | CCSC[C@H](NC(C)=O)C(=O)Oc1cc(C(C)C)ccc1C [codrug 3, N-Ac-Cys(Ethyl)-CAR] | 10000 µg/mL (≈ 30.9 mM) | 10000 µg/mL (≈ 30.9 mM) | 10000 µg/mL (≈ 30.9 mM) | 10000 µg/mL (≈ 30.9 mM) | 2500 µg/mL (≈ 7.73 mM) | – | over 20 mg/mL
10000 µg/mL (≈ 30.9 mM) | 5000 µg/mL (≈ 15.5 mM) | 10000 µg/mL (≈ 30.9 mM) | 10000 µg/mL (≈ 30.9 mM) | 5000 µg/mL (≈ 15.5 mM) | CSCC[C@H](NC(C)=O)C(=O)Oc1cc(C(C)C)ccc1C [codrug 5, N-Ac-Met-CAR] | 10000 µg/mL (≈ 30.9 mM) | 10000 µg/mL (≈ 30.9 mM) | 10000 µg/mL (≈ 30.9 mM) | 10000 µg/mL (≈ 30.9 mM) | 5000 µg/mL (≈ 15.5 mM) | – | over 20 mg/mL
5000 µg/mL (≈ 14.8 mM) | 5000 µg/mL (≈ 14.8 mM) | 10000 µg/mL (≈ 29.5 mM) | 10000 µg/mL (≈ 29.5 mM) | 2500 µg/mL (≈ 7.38 mM) | Cc1ccc(C(C)C)cc1OC(=O)CCCC[C@@H]1CCSS1 [codrug 7, LA-CAR] | 10000 µg/mL (≈ 29.5 mM) | 10000 µg/mL (≈ 29.5 mM) | 10000 µg/mL (≈ 29.5 mM) | 10000 µg/mL (≈ 29.5 mM) | 5000 µg/mL (≈ 14.8 mM) | ≤ 12% | –
10000 µg/mL (≈ 35.8 mM) | 10000 µg/mL (≈ 35.8 mM) | 10000 µg/mL (≈ 35.8 mM) | 10000 µg/mL (≈ 35.8 mM) | 2500 µg/mL (≈ 8.95 mM) | Cc1ccc(C(C)C)cc1OC(=O)[C@@H]1CSC(=O)N1 [codrug 10, OTC-CAR] | 10000 µg/mL (≈ 35.8 mM) | 10000 µg/mL (≈ 35.8 mM) | 10000 µg/mL (≈ 35.8 mM) | 10000 µg/mL (≈ 35.8 mM) | 2500 µg/mL (≈ 8.95 mM) | ≤ 12% | –

Structure (SMILES) | MIC (E. coli ATCC 8739) | MIC (P. aeruginosa ATCC 9027) | MIC (S. aureus ATCC 29213) | MIC [1] | MIC (C. albicans ATCC 10231) | MBC (E. coli ATCC 8739) | MBC (P. aeruginosa ATCC 9027) | MBC (S. aureus ATCC 29213) | MBC [1] | MFC (C. albicans ATCC 10231) | hemolytic activity, maximum at the tested concentrations [2] | concentration at which hemolytic activity is over 50% [2]
C[Se]CC[C@H](NC(C)=O)C(=O)Oc1cc(C(C)C)ccc1C [codrug 6, N-Ac-Met(Se)-CAR] | 5000 µg/mL (≈ 13.5 mM) | 5000 µg/mL (≈ 13.5 mM) | 10000 µg/mL (≈ 27 mM) | 5000 µg/mL (≈ 13.5 mM) | 150 µg/mL (≈ 0.405 mM) | 10000 µg/mL (≈ 27 mM) | 10000 µg/mL (≈ 27 mM) | 10000 µg/mL (≈ 27 mM) | 10000 µg/mL (≈ 27 mM) | 600 µg/mL (≈ 1.62 mM) | – | over 20 mg/mL
